According to PubChem BioAssay AID328 (DTP/NCI, 2004):
Values joined by “and” are separate entries in the source; they are usually repeats but may differ in a detail not shown here. Identical values can stand only once. Toxic doses and inconclusive results are not listed. Rule for the calls: active = survival T/C of 150% or more; inactive = T/C below 125% in these data.

Tested on: BDF1 mice, P388 leukemia ip, median survival T/C
Assay: NCI In Vivo Anticancer Drug Screen. Data for tumor model P388 Leukemia (intraperitoneal) in B6D2F1 (BDF1) mice
Settings: endpoint: median survival time, higher = longer survival
Method in brief: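 T/C = treated-group survival ÷ vehicle-control survival; tumour transplanted into mice before dosing.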

[1] = dose: 100.0 mg/kg/injection, schedule: Q01DX001 (ip), vehicle: Klucel (hydroxypropylcellulose) (HPC)
[2] = dose: 100.0 mg/kg/injection, schedule: Q01DX009 (ip), vehicle: Klucel (hydroxypropylcellulose) (HPC)
[3] = dose: 100.0 mg/kg/injection, schedule: Q04DX003 (ip), vehicle: Klucel (hydroxypropylcellulose) (HPC)
[4] = dose: 200.0 mg/kg/injection, schedule: Q01DX001 (ip), vehicle: Klucel (hydroxypropylcellulose) (HPC)
[5] = dose: 200.0 mg/kg/injection, schedule: Q01DX009 (ip), vehicle: Klucel (hydroxypropylcellulose) (HPC)
[6] = dose: 200.0 mg/kg/injection, schedule: Q04DX003 (ip), vehicle: Klucel (hydroxypropylcellulose) (HPC)
[7] = dose: 400.0 mg/kg/injection, schedule: Q01DX009 (ip), vehicle: Klucel (hydroxypropylcellulose) (HPC)
[8] = dose: 400.0 mg/kg/injection, schedule: Q04DX003 (ip), vehicle: Klucel (hydroxypropylcellulose) (HPC)
[9] = dose: 400.0 mg/kg/injection, schedule: Q01DX001 (ip), vehicle: Klucel (hydroxypropylcellulose) (HPC)
[10] = dose: 50.0 mg/kg/injection, schedule: Q01DX009 (ip), vehicle: Klucel (hydroxypropylcellulose) (HPC)
[11] = dose: 100.0 mg/kg/injection, schedule: Q04DX003 (ip), vehicle: saline
[12] = dose: 200.0 mg/kg/injection, schedule: Q04DX003 (ip), vehicle: saline
[13] = dose: 100.0 mg/kg/injection, schedule: Q04DX003 (ip), vehicle: saline with Tween-80
[14] = dose: 200.0 mg/kg/injection, schedule: Q04DX003 (ip), vehicle: saline with Tween-80
[15] = dose: 400.0 mg/kg/injection, schedule: Q04DX003 (ip), vehicle: saline with Tween-80

Measured: T/C

O=CNc1c(Cl)c(Cl)c2c(c1Cl)Cc1cc(Cl)ccc1-2
inactive: dose: 0.18 mg/kg/injection, schedule: Q01DX009 (ip), vehicle: DMSO 91 % of control | dose: 0.37 mg/kg/injection, schedule: Q01DX009 (ip), vehicle: DMSO 95 % of control | dose: 0.75 mg/kg/injection, schedule: Q01DX009 (ip), vehicle: DMSO 100 % of control | dose: 3.0 mg/kg/injection, schedule: Q01DX009 (ip), vehicle: DMSO 89 % of control | dose: 12.5 mg/kg/injection, schedule: Q01DX009 (ip), vehicle: DMSO 96 % of control | dose: 50.0 mg/kg/injection, schedule: Q01DX001 (ip), vehicle: Klucel (hydroxypropylcellulose) (HPC) 90 % of control | [1] 90 % of control | [2] 116 % of control | [3] 90 % of control and 100 % of control | [4] 86 % of control | [5] 116 % of control | [6] 90 % of control and 91 % of control | [7] 105 % of control | [8] 86 % of control and 87 % of control

O=C1c2ccccc2CCC1(Br)C(Br)c1ccccc1 (stereo not drawn)
inactive: [1] 100 % of control | [2] 100 % of control | [3] 113 % of control | dose: 130.0 mg/kg/injection, schedule: Q01DX001 (ip), vehicle: Klucel (hydroxypropylcellulose) (HPC) 90 % of control | dose: 133.0 mg/kg/injection, schedule: Q01DX001 (ip), vehicle: Klucel (hydroxypropylcellulose) (HPC) 100 % of control | [4] 100 % of control and 109 % of control | [5] 100 % of control | [6] 113 % of control | dose: 300.0 mg/kg/injection, schedule: Q01DX001 (ip), vehicle: Klucel (hydroxypropylcellulose) (HPC) 95 % of control and 100 % of control | [9] 112 % of control | [7] 100 % of control | [8] 121 % of control

CCOC(=O)/C(C#N)=C\C=C\c1ccccc1
inactive: [3] 86 % of control | [6] 90 % of control | [8] 90 % of control

CCN1C(=O)CN=C(c2ccccn2)c2cc(Cl)ccc21
inactive: [1] 90 % of control | [4] 104 % of control | [9] 95 % of control

COc1ccc2c3c(ccc2c1)C(=O)C(C)(C#N)CC3 (stereo not drawn)
inactive: [10] 104 % of control | [2] 95 % of control | dose: 100.0 mg/kg/injection, schedule: Q04DX003 (ip), vehicle: other 95 % of control | [5] 100 % of control | dose: 200.0 mg/kg/injection, schedule: Q04DX003 (ip), vehicle: other 100 % of control | dose: 400.0 mg/kg/injection, schedule: Q04DX003 (ip), vehicle: other 95 % of control

O=S(=O)(O)c1cccc2cccc(Cl)c12
inactive: [11] 100 % of control | [12] 95 % of control | dose: 400.0 mg/kg/injection, schedule: Q04DX003 (ip), vehicle: saline 100 % of control

Clc1ccccc1CSc1ncnc2nc[nH]c12
inactive: [2] 90 % of control | [3] 95 % of control | [5] 90 % of control | [6] 100 % of control | [7] 104 % of control | [8] 100 % of control

Cc1ncc2c[n+]([O-])ccn12
inactive: dose: 50.0 mg/kg/injection, schedule: Q04DX003 (ip), vehicle: saline 100 % of control | [11] 100 % of control | [12] 90 % of control

O=C(Nc1ccc2c(c1)OCO2)O/N=C\c1ccccn1
inactive: [13] 118 % of control | [14] 95 % of control | [15] 100 % of control

Cc1ccc(S(=O)(=O)OCC(C)(C)NC(=O)c2ccc([N+](=O)[O-])cc2)cc1
inactive: dose: 50.0 mg/kg/injection, schedule: Q01DX001 (ip), vehicle: saline with Tween-80 100 % of control | dose: 100.0 mg/kg/injection, schedule: Q01DX001 (ip), vehicle: saline with Tween-80 105 % of control | dose: 200.0 mg/kg/injection, schedule: Q01DX001 (ip), vehicle: saline with Tween-80 110 % of control

CCN(CC)CCN1C(=O)CN=C(c2ccccn2)c2cc(Cl)ccc21
inactive: dose: 50.0 mg/kg/injection, schedule: Q04DX003 (ip), vehicle: saline with Tween-80 95 % of control | [13] 100 % of control | [14] 105 % of control

COC1(c2ccccc2)CN(Cc2ccccc2)CCO1 (stereo not drawn)
inactive: [10] 113 % of control | [2] 118 % of control | [3] 113 % of control | [5] 95 % of control | [6] 113 % of control

CC(C)C(Sc1nc(N)nc2nc[nH]c12)C(=O)O (stereo not drawn)
inactive: dose: 100.0 mg/kg/injection, schedule: Q04DX003 (ip), vehicle: saline sonified 110 % of control | dose: 200.0 mg/kg/injection, schedule: Q04DX003 (ip), vehicle: saline sonified 120 % of control | dose: 400.0 mg/kg/injection, schedule: Q04DX003 (ip), vehicle: saline sonified 105 % of control

CCC12C=CCN3CCC4(c5cc(C(c6ccc(OC)cc6)c6cc7ccccc7[nH]6)c(OC)cc5N(C)C4C(O)(CO)C1O)C32 (stereo not drawn)
inactive: dose: 2.0 mg/kg/injection, schedule: Q01DX009 (ip), vehicle: saline 104 % of control | dose: 4.0 mg/kg/injection, schedule: Q01DX009 (ip), vehicle: saline 98 % of control | dose: 8.0 mg/kg/injection, schedule: Q01DX009 (ip), vehicle: saline 95 % of control | dose: 16.0 mg/kg/injection, schedule: Q01DX009 (ip), vehicle: saline 98 % of control | dose: 32.0 mg/kg/injection, schedule: Q01DX009 (ip), vehicle: saline 104 % of control

O=C(C=C(C(F)(F)F)C(F)(F)F)c1cccc(C(F)(F)F)c1
inactive: dose: 6.25 mg/kg/injection, schedule: Q01DX009 (ip), vehicle: saline with Tween-80 110 % of control | dose: 12.5 mg/kg/injection, schedule: Q01DX009 (ip), vehicle: saline with Tween-80 120 % of control | dose: 12.5 mg/kg/injection, schedule: Q04DX003 (ip), vehicle: saline with Tween-80 122 % of control | dose: 25.0 mg/kg/injection, schedule: Q01DX009 (ip), vehicle: saline with Tween-80 110 % of control | dose: 25.0 mg/kg/injection, schedule: Q04DX003 (ip), vehicle: saline with Tween-80 122 % of control

Cc1n(Cc2ccccc2)c2c([n+]1C)C(=O)c1ccccc1C2=O
inactive: dose: 0.5 mg/kg/injection, schedule: Q01DX010 (ip), vehicle: saline 100 % of control | dose: 1.0 mg/kg/injection, schedule: Q01DX010 (ip), vehicle: saline 109 % of control | dose: 2.0 mg/kg/injection, schedule: Q01DX010 (ip), vehicle: saline 113 % of control | dose: 125.0 micrograms/kg/injection, schedule: Q01DX009 (ip), vehicle: Klucel (hydroxypropylcellulose) (HPC) 105 % of control | dose: 250.0 micrograms/kg/injection, schedule: Q01DX009 (ip), vehicle: Klucel (hydroxypropylcellulose) (HPC) 100 % of control | dose: 500.0 micrograms/kg/injection, schedule: Q01DX009 (ip), vehicle: Klucel (hydroxypropylcellulose) (HPC) 110 % of control | dose: 1000.0 micrograms/kg/injection, schedule: Q01DX009 (ip), vehicle: Klucel (hydroxypropylcellulose) (HPC) 115 % of control | dose: 2000.0 micrograms/kg/injection, schedule: Q01DX009 (ip), vehicle: Klucel (hydroxypropylcellulose) (HPC) 120 % of control

Cc1cc(C)c(CN)cc1C
inactive: dose: 5.0 mg/kg/injection, schedule: Q04DX003 (ip), vehicle: saline with Tween-80 100 % of control | dose: 10.0 mg/kg/injection, schedule: Q04DX003 (ip), vehicle: saline with Tween-80 100 % of control | dose: 20.0 mg/kg/injection, schedule: Q04DX003 (ip), vehicle: saline with Tween-80 100 % of control

CC12CCC(C=C1N1CCOCC1)C(C)(C)O2 (stereo not drawn)
inactive: dose: 50.0 mg/kg/injection, schedule: Q01DX005 (ip), vehicle: saline 114 % of control | dose: 100.0 mg/kg/injection, schedule: Q01DX005 (ip), vehicle: saline 122 % of control | dose: 200.0 mg/kg/injection, schedule: Q01DX005 (ip), vehicle: saline 111 % of control

ClC1=CCCCC1
inactive: dose: 150.0 mg/kg/injection, schedule: Q01DX009 (ip), vehicle: saline 120 % of control | dose: 225.0 mg/kg/injection, schedule: Q01DX009 (ip), vehicle: saline 115 % of control | dose: 335.0 mg/kg/injection, schedule: Q01DX009 (ip), vehicle: saline 120 % of control

CC(=O)Nc1c(Cl)c(Cl)c2c(c1Cl)C(=O)c1cc(Cl)ccc1-2
inactive: dose: 100.0 mg/kg/injection, schedule: Q01DX009 (ip), vehicle: saline with Tween-80 90 % of control | [13] 90 % of control | [14] 90 % of control | [15] 95 % of control
